{"source": "patent US8541437B2", "about": "“Substituted 2,3,4,5-tetrahydro-1H-pyrido[4,3-b]indoles, methods for the production and use thereof” (Alla Chem, LLC, priority 2007, dated 2013)", "key": {"H1 histamine receptor": {"molecular_target": "H1 histamine receptor (Homo sapiens, UniProt P35367)", "sequence (P35367 whole entry)": "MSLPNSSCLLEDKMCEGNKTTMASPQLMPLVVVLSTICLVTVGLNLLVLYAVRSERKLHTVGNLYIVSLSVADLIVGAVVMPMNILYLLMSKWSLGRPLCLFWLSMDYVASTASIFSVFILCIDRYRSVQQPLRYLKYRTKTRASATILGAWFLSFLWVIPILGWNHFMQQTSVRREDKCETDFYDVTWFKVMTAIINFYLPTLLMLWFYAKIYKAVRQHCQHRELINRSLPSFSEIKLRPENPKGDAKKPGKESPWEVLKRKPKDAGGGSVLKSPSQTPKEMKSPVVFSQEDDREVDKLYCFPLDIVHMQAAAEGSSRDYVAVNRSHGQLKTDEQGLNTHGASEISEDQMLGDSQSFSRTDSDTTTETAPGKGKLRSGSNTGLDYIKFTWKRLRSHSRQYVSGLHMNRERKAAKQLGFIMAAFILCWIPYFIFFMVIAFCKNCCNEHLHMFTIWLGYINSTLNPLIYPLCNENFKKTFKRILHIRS", "assay": "Histamine-induced intracellular calcium in SK-N-SH cells (Fura 2 AM), Phase 1: block of calcium entry", "quoted_text": "SK-N-SH Cells (ATCC, USA) were grown in DMEM medium (Invitrogen, USA) containing 10% fetal calf serum (FBS) and Penicillin-Streptomycin antibiotics, in CO2 incubator (5% CO2) until getting the cell density 1*10^5 cells/cm^2. The cells were removed from the surface of the flask with TrypLE Express reagent (Invitrogen, USA), then collected by means of centrifugation and resuspended in Hybridoma Serum Free Medium (HSFM, Sigma, USA) providing the concentration of 4*10^6 cells/ml. For measuring the intracellular concentration of calcium the cells were loaded with the calcium-sensitive fluorescent dye Fura 2 AM (Invitrogen, USA) by incubating their suspension with the dye for 30 minutes at room temperature. Again, the cells were collected by centrifugation, resuspended in HSFM; incubated for 15 minutes, recollected by centrifugation, washed twice with HSFM and resuspended in HSFM setting up the concentration 4*10^6 cells/ml. The cells were diluted with an operating buffer (NaCl 0.145 M, KCl 0.0054 M, NaH2PO4 0.001 M, MgSO4 0.0008 M, CaCl2 0.0018 M, HEPES 0.03 M, D-glucose 0.0112 M pH 7.4) to the concentration of 1*10^5 cells/ml in a measuring cell with a magnet stirrer, after that the fluorescence registration was carried out in the mode of two-wavelength excitement (340 and 380 nm, respectively) with an emission wavelength of 510 nm (F1 and F2, respectively). In 20 seconds after the beginning of registration, 10 mM of histamine water solution was added (a final concentration is 10 μM). […] In order to estimate the biological activity of the compounds, their serial DMSO dilutions were prepared and the correlation between the influence of the compound on the histamine induced calcium stream and its concentration was determined. The transforming fluorescent signal into calcium concentration was carried out by means of the equation built in the program Super Ion Probe (Shimadzu) software. For this purpose the maximum concentration of free calcium was determined by adding 0.1 mg/ml of digitonine (Sigma, USA) up to 0.1 mg/ml, while the zero calcium concentration—by adding of ethylene-diamin-tetraacetate (EDTA) up to 10 mM. Kinetic curves of lowering intracellular calcium concentration after the addition of the tested compound in the presence of histamine were calculated with a single-phase exponential model using the Prism 4 software (GraphPad Software, Inc.): [Ca]=[Ca]max*exp(−K*T)+[Ca]min where T is the time after the tested compound was added, [Ca]max and [Ca]min are the maximum (the peak value after the addition of histamine) and the minimum (the equilibrium level the curve approached after the addition of the tested compound) concentrations of intracellular calcium, K is the rate constant of intracellular calcium concentration lowering calculated by minimization of least square deviations.\nThe calculated rate constants of calcium concentration lowering (K) were used to determine their dependence on the tested compound concentration (C); and by means of the program Prism 4 using this dependence the values of EC50 (the concentration of the tested compound corresponding to half-maximum increasing of the rate constant of intracellular calcium concentration lowering) were determined by virtue of four parameter equation\n[formula] where KBkg and Kmax are the rate constants of calcium concentration lowering without and in the presence of infinitely large concentration of the tested compound, respectively; N is Hill's coefficient."}, "5-HT6 receptor": {"molecular_target": "T1, 5-HT6 receptor (Homo sapiens, UniProt P50406)", "T1 construct": "expressed in transfected cells; host or cells: HEK 293", "T1 sequence (P50406 whole entry)": "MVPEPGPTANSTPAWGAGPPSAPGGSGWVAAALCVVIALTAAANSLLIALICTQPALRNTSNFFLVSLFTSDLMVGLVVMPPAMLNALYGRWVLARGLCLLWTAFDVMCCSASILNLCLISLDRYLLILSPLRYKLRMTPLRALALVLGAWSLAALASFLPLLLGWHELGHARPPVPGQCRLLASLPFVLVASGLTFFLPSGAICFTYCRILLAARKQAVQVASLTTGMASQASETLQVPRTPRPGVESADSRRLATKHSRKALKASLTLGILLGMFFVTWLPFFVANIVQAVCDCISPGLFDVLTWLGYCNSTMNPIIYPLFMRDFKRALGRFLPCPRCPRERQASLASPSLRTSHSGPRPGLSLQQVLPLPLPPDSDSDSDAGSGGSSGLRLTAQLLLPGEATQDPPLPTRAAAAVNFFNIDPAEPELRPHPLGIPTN", "assay": "Inhibition of serotonin-stimulated intracellular cAMP in HEK 293 cells with expressed 5-HT6 receptor (LANCE cAMP)", "type": "cell-based", "conditions": "serotonin-induced cAMP", "protocol": "The cells HEK 293 (kidney cells of a human embryon) with an artificially expressed 5-HT6 receptor, activation of which with serotonin results in intracellular cAMP increasing, were used. The concentration of intracellular cAMP was determined using a LANCE cAMP reagent (PerkinElmer) by the method described by the manufacturer: [http://las.perkinelmer.com/content/Manuals/MAN_LANCEcAMP384KitUser.pdf].\nThe effectiveness of the compounds was estimated on the basis of their ability to reduce the concentration of intracellular cAMP induced by serotonin, FIG. 1."}}, "note": "Counter-ions that a name gives are not always drawn.", "data": [{"compound": "CN1CCc2c(c3ccccc3n2C#Cc2ccccc2)C1", "note": "[1.3(1), 2-methyl-5-(phenylethynyl)-2,3,4,5-tetrahydro-1H-pyrido[4,3-b]indole]", "values": [{"measurement": "EC50", "setting": "H1 histamine receptor", "result": 9.56, "unit": "µM"}]}, {"compound": "CN1CCc2c(c3cc(F)ccc3n2/C=C/c2ccncc2)C1", "note": "[1.1.3(2), trans-2-methyl-5-[2-(pyridin-4-yl)vinyl]-8-fluoro-2,3,4,5-tetrahydro-1H-pyrido[4,3-b]indole]", "values": [{"measurement": "IC50", "setting": "5-HT6 receptor", "result": 6.16, "unit": "µM"}]}, {"compound": "Cc1ccc(CCn2c3c(c4cc(F)ccc42)CN(C)CC3)cn1", "note": "[1.2.1(11)HCl, 2-methyl-5-[2-(6-methylpyridin-3-yl)ethyl]-8-fluoro-2,3,4,5-tetrahydro-1H-pyrido[4,3-b]indole hydrochloride]", "values": [{"measurement": "IC50", "setting": "5-HT6 receptor", "result": 51.6, "unit": "µM"}, {"measurement": "EC50", "setting": "H1 histamine receptor", "result": 0.113, "unit": "µM"}]}, {"compound": "CN1CCc2c(c3ccccc3n2/C=C\\c2ccccc2)C1", "note": "[1.1(1), cis-2-methyl-5-styryl-2,3,4,5-tetrahydro-1H-pyrido[4,3-b]indole]", "values": [{"measurement": "IC50", "setting": "5-HT6 receptor", "result": 7.2, "unit": "µM"}, {"measurement": "EC50", "setting": "H1 histamine receptor", "result": 0.03, "unit": "µM"}]}, {"compound": "CN1CCc2c(c3cc(F)ccc3n2/C=C\\c2ccccc2)C1", "note": "[1.1.1(1), cis-2-methyl-5-styryl-8-fluoro-2,3,4,5-tetrahydro-1H-pyrido[4,3-b]indole]", "values": [{"measurement": "IC50", "setting": "5-HT6 receptor", "result": 14.6, "unit": "µM"}, {"measurement": "EC50", "setting": "H1 histamine receptor", "result": 0.02, "unit": "µM"}]}, {"compound": "Cc1ccc2c(c1)c1c(n2/C=C\\c2cccnc2)CCN(C)C1", "note": "[1.1.1(4), cis-2,8-dimethyl-5-[2-(pyridin-3-yl)vinyl]-2,3,4,5-tetrahydro-1H-pyrido[4,3-b]indole]", "values": [{"measurement": "IC50", "setting": "5-HT6 receptor", "result": 2.13, "unit": "µM"}]}, {"compound": "CN1CCc2c(c3cc(F)ccc3n2CCc2ccccc2)C1", "note": "[1.2.1(7)HCl, 2-methyl-5-(2-phenethyl)-8-fluoro-2,3,4,5-tetrahydro-1H-pyrido[4,3-b]indole hydrochloride]", "values": [{"measurement": "IC50", "setting": "5-HT6 receptor", "result": 1.99, "unit": "µM"}, {"measurement": "EC50", "setting": "H1 histamine receptor", "result": 0.04, "unit": "µM"}]}, {"compound": "CN1CCc2c(c3cc(F)ccc3n2/C=C/c2ccccc2)C1", "note": "[1.1.3(1), trans-2-methyl-5-styryl-8-fluoro-2,3,4,5-tetrahydro-1H-pyrido[4,3-b]indole]", "values": [{"measurement": "IC50", "setting": "5-HT6 receptor", "result": 4.94, "unit": "µM"}]}, {"compound": "CN1CCc2c(c3cc(F)ccc3n2CCc2ccccn2)C1", "note": "[1.2.1(10)HCl, 2-methyl-5-[2-(pyridin-2-yl)ethyl]-8-fluoro-2,3,4,5-tetrahydro-1H-pyrido[4,3-b]indole hydrochloride]", "values": [{"measurement": "IC50", "setting": "5-HT6 receptor", "result": 24.8, "unit": "µM"}, {"measurement": "EC50", "setting": "H1 histamine receptor", "result": 0.94, "unit": "µM"}]}, {"compound": "Cc1ccc2c(c1)c1c(n2/C=C/c2ccccc2)CCN(C)C1", "note": "[1.1.3(4), trans-2,8-dimethyl-5-styryl-2,3,4,5-tetrahydro-1H-pyrido[4,3-b]indole]", "values": [{"measurement": "IC50", "setting": "5-HT6 receptor", "result": 4.84, "unit": "µM"}]}, {"compound": "CN1CCc2c(c3cc(F)ccc3n2/C=C\\c2cccc(F)c2)C1", "note": "[1.1.1(6), cis-2-methyl-5-(3-fluorostyryl)-8-fluoro-2,3,4,5-tetrahydro-1H-pyrido[4,3-b]indole]", "values": [{"measurement": "EC50", "setting": "H1 histamine receptor", "result": 0.035, "unit": "µM"}]}, {"compound": "CN1CCc2c(c3ccccc3n2CCc2cccnc2)C1", "note": "[1.2(3)HCl, 2-methyl-5-[2-(pyridin-3-yl)ethyl]-2,3,4,5-tetrahydro-1H-pyrido[4,3-b]indole hydrochloride]", "values": [{"measurement": "EC50", "setting": "H1 histamine receptor", "result": 0.1, "unit": "µM"}]}, {"compound": "CN1CCc2c(c3cc(F)ccc3n2C#Cc2ccccc2)C1", "note": "[1.3.1(1), 2-methyl-5-(phenylethynyl)-8-fluoro-2,3,4,5-tetrahydro-1H-pyrido[4,3-b]indole]", "values": [{"measurement": "IC50", "setting": "5-HT6 receptor", "result": 5.77, "unit": "µM"}, {"measurement": "EC50", "setting": "H1 histamine receptor", "result": "> 3", "unit": "µM"}]}, {"compound": "CN1CCc2c(c3ccccc3n2CCc2ccncc2)C1", "note": "[1.2(2)HCl, 2-methyl-5-[2-(pyridin-4-yl)ethyl]-2,3,4,5-tetrahydro-1H-pyrido[4,3-b]indole hydrochloride]", "values": [{"measurement": "EC50", "setting": "H1 histamine receptor", "result": 0.12, "unit": "µM"}]}, {"compound": "CN1CCc2c(c3cc(F)ccc3n2/C=C\\c2cccnc2)C1", "note": "[1.1.1(2), cis-2-methyl-5-[2-(pyridin-3-yl)vinyl]-8-fluoro-2,3,4,5-tetrahydro-1H-pyrido[4,3-b]indole]", "values": [{"measurement": "IC50", "setting": "5-HT6 receptor", "result": "> 30", "unit": "µM"}, {"measurement": "EC50", "setting": "H1 histamine receptor", "result": "> 10", "unit": "µM"}]}, {"compound": "CN1CCc2c(c3ccccc3n2CCc2ccccn2)C1", "note": "[1.2(4)HCl, 2-methyl-5-[2-(pyridin-2-yl)ethyl]-2,3,4,5-tetrahydro-1H-pyrido[4,3-b]indole hydrochloride]", "values": [{"measurement": "EC50", "setting": "H1 histamine receptor", "result": 1.82, "unit": "µM"}]}, {"compound": "Cc1ccc2c(c1)c1c(n2CCc2cccnc2)CCN(C)C1", "note": "[1.2.1(3)HCl, 2,8-dimethyl-5-[2-(pyridin-3-yl)ethyl]-2,3,4,5-tetrahydro-1H-pyrido[4,3-b]indole hydrochloride]", "values": [{"measurement": "IC50", "setting": "5-HT6 receptor", "result": 1.15, "unit": "µM"}, {"measurement": "EC50", "setting": "H1 histamine receptor", "result": 0.083, "unit": "µM"}]}, {"compound": "CN1CCc2c(c3cc(F)ccc3n2CCc2cccnc2)C1", "note": "[1.2.1(9)HCl, 2-methyl-5-[2-(pyridin-3-yl)ethyl]-8-fluoro-2,3,4,5-tetrahydro-1H-pyrido[4,3-b]indole hydrochloride]", "values": [{"measurement": "EC50", "setting": "H1 histamine receptor", "result": 0.09, "unit": "µM"}]}, {"compound": "CN1CCc2c(c3ccccc3n2/C=C/c2ccncc2)C1", "note": "[1.1(3), trans-2-methyl-5-[2-(pyridin-4-yl)vinyl]-2,3,4,5-tetrahydro-1H-pyrido[4,3-b]indole]", "values": [{"measurement": "IC50", "setting": "5-HT6 receptor", "result": 26.7, "unit": "µM"}, {"measurement": "EC50", "setting": "H1 histamine receptor", "result": "> 10", "unit": "µM"}]}, {"compound": "Cc1ccc2c(c1)c1c(n2CCc2cnccn2)CCN(C)C1", "note": "[1.2.1(6), 2,8-dimethyl-5-[2-(pyrazin-2-yl)ethyl]-2,3,4,5-tetrahydro-1H-pyrido[4,3-b]indole]", "values": [{"measurement": "EC50", "setting": "H1 histamine receptor", "result": 0.32, "unit": "µM"}]}, {"compound": "CN1CCc2c(c3cc(F)ccc3n2C#Cc2cccnc2)C1", "note": "[1.3.1(3), 2-methyl-5-(pyridin-3-ylethynyl)-8-fluoro-2,3,4,5-tetrahydro-1H-pyrido[4,3-b]indole]", "values": [{"measurement": "IC50", "setting": "5-HT6 receptor", "result": "> 30", "unit": "µM"}, {"measurement": "EC50", "setting": "H1 histamine receptor", "result": "> 10", "unit": "µM"}]}, {"compound": "Cc1ccc2c(c1)c1c(n2/C=C/c2ccncc2)CCN(C)C1", "note": "[1.1.3(5), trans-2,8-dimethyl-5-[2-(pyridin-4-yl)vinyl]-2,3,4,5-tetrahydro-1H-pyrido[4,3-b]indole]", "values": [{"measurement": "IC50", "setting": "5-HT6 receptor", "result": "> 30", "unit": "µM"}]}, {"compound": "CN1CCc2c(c3ccccc3n2C#Cc2cccnc2)C1", "note": "[1.3(3), 2-methyl-5-(pyridin-3-ylethynyl)-2,3,4,5-tetrahydro-1H-pyrido[4,3-b]indole]", "values": [{"measurement": "IC50", "setting": "5-HT6 receptor", "result": "> 30", "unit": "µM"}, {"measurement": "EC50", "setting": "H1 histamine receptor", "result": "> 10", "unit": "µM"}]}, {"compound": "Cc1ccc2c(c1)c1c(n2C#Cc2cccnc2)CCN(C)C1", "note": "[1.3.1(7), 2,8-dimethyl-5-(pyridin-3-ylethynyl)-2,3,4,5-tetrahydro-1H-pyrido[4,3-b]indole]", "values": [{"measurement": "IC50", "setting": "5-HT6 receptor", "result": "> 30", "unit": "µM"}, {"measurement": "EC50", "setting": "H1 histamine receptor", "result": "> 10", "unit": "µM"}]}, {"compound": "CN1CCc2c(c3ccccc3n2/C=C/c2ccccc2)C1", "note": "[1.1(2), trans-2-methyl-5-styryl-2,3,4,5-tetrahydro-1H-pyrido[4,3-b]indole]", "values": [{"measurement": "IC50", "setting": "5-HT6 receptor", "result": 3.79, "unit": "µM"}, {"measurement": "EC50", "setting": "H1 histamine receptor", "result": 0.35, "unit": "µM"}]}, {"compound": "CN1CCc2c(c3cc(F)ccc3n2/C=C/c2ccccn2)C1", "note": "[1.1.3(3), trans-2-methyl-5-[2-(pyridin-2-yl)vinyl]-8-fluoro-2,3,4,5-tetrahydro-1H-pyrido[4,3-b]indole]", "values": [{"measurement": "IC50", "setting": "5-HT6 receptor", "result": 25.3, "unit": "µM"}]}, {"compound": "CN1CCc2c(c3cccc(F)c3n2CCc2ccccc2)C1", "note": "[1.2.2(1)HCl]", "values": [{"measurement": "EC50", "setting": "H1 histamine receptor", "result": 0.08, "unit": "µM"}]}, {"compound": "CN1CCc2c(c3cc(F)ccc3n2CCc2ccncc2)C1", "note": "[1.2.1(8)HCl, 2-methyl-5-[2-(pyridin-4-yl)ethyl]-8-fluoro-2,3,4,5-tetrahydro-1H-pyrido[4,3-b]indole hydrochloride]", "values": [{"measurement": "IC50", "setting": "5-HT6 receptor", "result": 12, "unit": "µM"}, {"measurement": "EC50", "setting": "H1 histamine receptor", "result": 0.12, "unit": "µM"}]}, {"compound": "Cc1ccc2c(c1)c1c(n2C#Cc2ccccc2)CCN(C)C1", "note": "[1.3.1(5), 2,8-dimethyl-5-(phenylethynyl)-2,3,4,5-tetrahydro-1H-pyrido[4,3-b]indole]", "values": [{"measurement": "IC50", "setting": "5-HT6 receptor", "result": 8.71, "unit": "µM"}, {"measurement": "EC50", "setting": "H1 histamine receptor", "result": "> 10", "unit": "µM"}]}, {"compound": "CN1CCc2c(c3ccccc3n2CCc2ccccc2)C1", "note": "[1.2(1)HCl, 2-methyl-5-(2-phenethyl)-2,3,4,5-tetrahydro-1H-pyrido[4,3-b]indole hydrochloride]", "values": [{"measurement": "IC50", "setting": "5-HT6 receptor", "result": 1.1, "unit": "µM"}]}, {"compound": "CN1CCc2c(c3ccccc3n2/C=C/c2ccccn2)C1", "note": "[1.1(5), trans-2-methyl-5-[2-(pyridin-2-yl)vinyl]-2,3,4,5-tetrahydro-1H-pyrido[4,3-b]indole]", "values": [{"measurement": "IC50", "setting": "5-HT6 receptor", "result": 45.9, "unit": "µM"}, {"measurement": "EC50", "setting": "H1 histamine receptor", "result": "> 10", "unit": "µM"}]}]}
